Source: PubChem BioAssay (NCI)
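GI50: concentration for 50% inhibition of growth. The concentration for full growth arrest is given as TGI.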

Assays:
Assay in all cases: growth of human tumour cells (NCI), 384-well format
SK-OV-3 ovarian = tested on: SK-OV-3 ovarian
OVCAR-8 ovarian = tested on: OVCAR-8 ovarian
UACC-62 melanoma = tested on: UACC-62 melanoma
U251 glioblastoma = tested on: U251 glioblastoma
NCI-H460 NSCLC = tested on: NCI-H460 NSCLC
UACC-257 melanoma = tested on: UACC-257 melanoma
NCI-H322M lung = tested on: NCI-H322M lung
COLO 205 colon = tested on: COLO 205 colon
SF-539 CNS = tested on: SF-539 CNS
EKVX NSCLC = tested on: EKVX NSCLC
SF-295 CNS = tested on: SF-295 CNS
A549 NSCLC = tested on: A549 NSCLC
HS 578T breast = tested on: HS 578T breast
SW-620 colon = tested on: SW-620 colon
SF-268 CNS = tested on: SF-268 CNS
MDA-MB-435 melanoma = tested on: MDA-MB-435 melanoma
RXF 393 renal = tested on: RXF 393 renal
DU-145 prostate = tested on: DU-145 prostate
HCC-2998 colon = tested on: HCC-2998 colon
KM12 colon = tested on: KM12 colon
HL-60(TB) leukemia = tested on: HL-60(TB) leukemia
HT29 colon = tested on: HT29 colon
OVCAR-3 ovarian = tested on: OVCAR-3 ovarian
UO-31 renal = tested on: UO-31 renal
PC-3 prostate = tested on: PC-3 prostate
CCRF-CEM leukemia = tested on: CCRF-CEM leukemia
NCI/ADR-RES ovarian = tested on: NCI/ADR-RES ovarian
OVCAR-4 ovarian = tested on: OVCAR-4 ovarian
M14 melanoma = tested on: M14 melanoma
HCT-116 colon = tested on: HCT-116 colon
LOX IMVI melanoma = tested on: LOX IMVI melanoma
T-47D breast = tested on: T-47D breast
SK-MEL-5 melanoma = tested on: SK-MEL-5 melanoma
MALME-3M melanoma = tested on: MALME-3M melanoma
MOLT-4 leukemia = tested on: MOLT-4 leukemia
RPMI-8226 leukemia = tested on: RPMI-8226 leukemia
HOP-62 NSCLC = tested on: HOP-62 NSCLC
786-0 renal = tested on: 786-0 renal
NCI-H226 lung = tested on: NCI-H226 lung
MDA-MB-468 breast = tested on: MDA-MB-468 breast
CAKI-1 renal = tested on: CAKI-1 renal
MCF7 breast = tested on: MCF7 breast
TK-10 renal = tested on: TK-10 renal
NCI-H23 lung = tested on: NCI-H23 lung
OVCAR-5 ovarian = tested on: OVCAR-5 ovarian
K-562 leukemia = tested on: K-562 leukemia
HCT-15 colon = tested on: HCT-15 colon
SNB-75 CNS = tested on: SNB-75 CNS
IGROV1 ovarian = tested on: IGROV1 ovarian
BT-549 breast = tested on: BT-549 breast
ACHN renal = tested on: ACHN renal
HOP-92 NSCLC = tested on: HOP-92 NSCLC

COc1ncc(-c2ccc3nccc(-c4ccnnc4)c3c2)cc1NS(=O)(=O)c1ccc(F)cc1F
GI50 (SK-OV-3 ovarian): < 10 nM | TGI (SK-OV-3 ovarian): 51.3 nM | GI50 (OVCAR-8 ovarian): 23.4 nM | TGI (OVCAR-8 ovarian): 1850 nM | GI50 (UACC-62 melanoma): < 10 nM | TGI (UACC-62 melanoma): 33.3 nM | GI50 (U251 glioblastoma): 21.1 nM | TGI (U251 glioblastoma): 1270 nM | GI50 (NCI-H460 NSCLC): < 10 nM | TGI (NCI-H460 NSCLC): 51.5 nM | GI50 (UACC-257 melanoma): 13.3 nM | TGI (UACC-257 melanoma): 87.3 nM | GI50 (NCI-H322M lung): 11.1 nM | TGI (NCI-H322M lung): 723 nM | GI50 (COLO 205 colon): < 10 nM | TGI (COLO 205 colon): 125 nM | GI50 (SF-539 CNS): 13.8 nM | TGI (SF-539 CNS): 103 nM | GI50 (EKVX NSCLC): < 10 nM | TGI (EKVX NSCLC): 98 nM | GI50 (SF-295 CNS): < 10 nM | TGI (SF-295 CNS): 54.1 nM | GI50 (A549 NSCLC): < 10 nM | TGI (A549 NSCLC): 101 nM | GI50 (HS 578T breast): < 10 nM | TGI (HS 578T breast): 17.3 nM | GI50 (SW-620 colon): 35.4 nM | TGI (SW-620 colon): 1500 nM | GI50 (SF-268 CNS): < 10 nM | TGI (SF-268 CNS): < 10 nM | GI50 (MDA-MB-435 melanoma): 18.2 nM | TGI (MDA-MB-435 melanoma): 1130 nM | GI50 (RXF 393 renal): < 10 nM | TGI (RXF 393 renal): 25.3 nM | GI50 (DU-145 prostate): 21.4 nM | TGI (DU-145 prostate): > 100 µM | GI50 (HCC-2998 colon): 14.3 nM | TGI (HCC-2998 colon): 912 nM | GI50 (KM12 colon): 21.9 nM | TGI (KM12 colon): 2190 nM | GI50 (HL-60(TB) leukemia): < 10 nM | TGI (HL-60(TB) leukemia): 10.7 nM | GI50 (HT29 colon): < 10 nM | TGI (HT29 colon): 1410 nM | GI50 (OVCAR-3 ovarian): < 10 nM | TGI (OVCAR-3 ovarian): 110 nM | GI50 (UO-31 renal): < 10 nM | TGI (UO-31 renal): 137 nM | GI50 (PC-3 prostate): < 10 nM | TGI (PC-3 prostate): 97.6 nM | GI50 (CCRF-CEM leukemia): < 10 nM | TGI (CCRF-CEM leukemia): < 10 nM | GI50 (NCI/ADR-RES ovarian): 43 nM | TGI (NCI/ADR-RES ovarian): 1650 nM | GI50 (OVCAR-4 ovarian): 25.2 nM | TGI (OVCAR-4 ovarian): 480 nM | GI50 (M14 melanoma): < 10 nM | TGI (M14 melanoma): 1070 nM | GI50 (HCT-116 colon): 13.3 nM | TGI (HCT-116 colon): 1170 nM | GI50 (LOX IMVI melanoma): 12.3 nM | TGI (LOX IMVI melanoma): 135 nM | GI50 (T-47D breast): < 10 nM | TGI (T-47D breast): < 10 nM | GI50 (SK-MEL-5 melanoma): < 10 nM | TGI (SK-MEL-5 melanoma): 43.6 nM | GI50 (MALME-3M melanoma): < 10 nM | TGI (MALME-3M melanoma): 26.4 nM | GI50 (MOLT-4 leukemia): < 10 nM | TGI (MOLT-4 leukemia): < 10 nM | GI50 (RPMI-8226 leukemia): 15.5 nM | TGI (RPMI-8226 leukemia): 54.4 nM | GI50 (HOP-62 NSCLC): 25.7 nM | TGI (HOP-62 NSCLC): 635 nM | GI50 ([…]-0 renal): 17.1 nM | TGI (786-0 renal): 276 nM | GI50 (NCI-H226 lung): 18.5 nM | TGI (NCI-H226 lung): 2400 nM | GI50 (MDA-MB-468 breast): < 10 nM | TGI (MDA-MB-468 breast): 11.7 nM | GI50 (CAKI-1 renal): < 10 nM | TGI (CAKI-1 renal): 106 nM | GI50 (MCF7 breast): < 10 nM | TGI (MCF7 breast): 73.4 µM | GI50 (TK-10 renal): < 10 nM | TGI (TK-10 renal): 251 nM | GI50 (NCI-H23 lung): < 10 nM | TGI (NCI-H23 lung): 2520 nM | GI50 (OVCAR-5 ovarian): < 10 nM | TGI (OVCAR-5 ovarian): 1130 nM | GI50 (K-562 leukemia): 44.2 nM | TGI (K-562 leukemia): 12.5 µM | GI50 (HCT-15 colon): < 10 nM | TGI (HCT-15 colon): 2960 nM | GI50 (SNB-75 CNS): < 10 nM | TGI (SNB-75 CNS): 14.2 nM | GI50 (IGROV1 ovarian): < 10 nM | TGI (IGROV1 ovarian): < 10 nM | GI50 (BT-549 breast): < 10 nM | TGI (BT-549 breast): 48.3 nM | GI50 (ACHN renal): < 10 nM | TGI (ACHN renal): > 100 µM | GI50 (HOP-92 NSCLC): < 10 nM | TGI (HOP-92 NSCLC): 46 nM
